Test system: PC-12
Test: Cytotoxicity against rat PC12 cells assessed as cell viability at 40 uM incubated for 24 hrs by CCK-8 assay relative to control
Assay type: functional
Conditions: read-out: Activity

Question: For `COc1ccc(-c2cc3c(/C=C/C(=O)c4cc(OC)c(OC)c(OC)c4)ccc(OC)c3o2)cc1`, which viability at 40 µM is on record?
Answer: Its viability at 40 µM is 72.9%.

Question: For `COC(=O)[C@@H]1CCCN1C(=O)/C=C/c1ccc(OC)c2oc(-c3ccc(C)cc3)cc12`, which viability at 40 µM is on record?
Answer: The viability at 40 µM was 75.5%.

Question: Which viability at 40 µM does the source give for `COc1ccc(/C=C/C(=O)c2ccc(O)cc2)c2cc(-c3ccc(C)cc3)oc12` here?
Answer: The viability at 40 µM was 84.1%.

Question: Which viability at 40 µM does the source give for `COC(=O)CNC(=O)/C=C/c1ccc(OC)c2oc(-c3ccc(C)cc3)cc12` here?
Answer: Its viability at 40 µM is 93.9%.

Question: Which viability at 40 µM does the source give for `COc1cc(OC)cc(-c2cc3c(/C=C/C(=O)NCCc4ccc(O)c(O)c4)ccc(OC)c3o2)c1` here?
Answer: Its viability at 40 µM is 98.7%.

Question: Which viability at 40 µM does the source give for `CCCC[C@H](NC(=O)/C=C/c1ccc(OC)c2oc(-c3ccc(C)cc3)cc12)C(=O)OC` here?
Answer: The viability at 40 µM was 93.5%.

Question: For `COC(=O)[C@H](CC1CCCCC1)NC(=O)/C=C/c1ccc(OC)c2oc(-c3ccc(C)cc3)cc12`, which viability at 40 µM is on record?
Answer: Its viability at 40 µM is 96.1%.

Question: Which viability at 40 µM does the source give for `COc1cc(C(=O)/C=C/c2ccc(OC)c3oc(-c4ccc(OC)c(OC)c4)cc23)ccc1O` here?
Answer: Its viability at 40 µM is 93.8%.

Question: With `COc1cccc(C(=O)/C=C/c2ccc(OC)c3oc(-c4ccc(C)cc4)cc23)c1` as the molecule, how does the viability at 40 µM read?
Answer: The viability at 40 µM was 119%.

Question: With `COc1ccc(C(=O)/C=C/c2ccc(OC)c3oc(-c4ccc(C)cc4)cc23)cc1O` as the molecule, how does the viability at 40 µM read?
Answer: Its viability at 40 µM is 69.2%.

Question: For `COC(=O)[C@@H](NC(=O)/C=C/c1ccc(OC)c2oc(-c3ccc(C)cc3)cc12)C(C)C`, which viability at 40 µM is on record?
Answer: The viability at 40 µM was 94.2%.

Question: Which viability at 40 µM does the source give for `COc1cccc(C(=O)/C=C/c2ccc(OC)c3oc(-c4ccc(C)cc4)cc23)c1OC` here?
Answer: The viability at 40 µM was 78.2%.

Question: For `COc1ccc(C(=O)/C=C/c2ccc(OC)c3oc(-c4ccc(C)cc4)cc23)cc1F`, which viability at 40 µM is on record?
Answer: Its viability at 40 µM is 98.8%.

Question: Which viability at 40 µM does the source give for `COc1ccc(/C=C/C(=O)c2cccc(O)c2)c2cc(-c3ccc(C)cc3)oc12` here?
Answer: The viability at 40 µM was 80.6%.

Question: With `COC(=O)[C@H](Cc1c[nH]c2ccccc12)NC(=O)/C=C/c1ccc(OC)c2oc(-c3cc(OC)cc(OC)c3)cc12` as the molecule, how does the viability at 40 µM read?
Answer: Its viability at 40 µM is 105%.

Question: With `COC(=O)[C@@H](NC(=O)/C=C/c1ccc(OC)c2oc(-c3ccc(C)cc3)cc12)c1ccc(O)cc1` as the molecule, how does the viability at 40 µM read?
Answer: Its viability at 40 µM is 92%.

Question: For `COc1ccc(C(=O)/C=C/c2ccc(OC)c3oc(-c4ccc(C)cc4)cc23)cc1`, which viability at 40 µM is on record?
Answer: The viability at 40 µM was 99.5%.

Question: Which viability at 40 µM does the source give for `CC[C@H](NC(=O)/C=C/c1ccc(OC)c2oc(-c3ccc(C)cc3)cc12)C(=O)OC` here?
Answer: Its viability at 40 µM is 84%.

Question: Which viability at 40 µM does the source give for `COc1ccc(-c2cc3c(/C=C/C(=O)c4ccc(O)c(OC)c4)ccc(OC)c3o2)cc1` here?
Answer: Its viability at 40 µM is 116%.

Question: For `COc1ccc(C(=O)/C=C/c2ccc(OC)c3oc(-c4ccc(C)cc4)cc23)cc1OC`, which viability at 40 µM is on record?
Answer: Its viability at 40 µM is 80.1%.

Question: Which viability at 40 µM does the source give for `COc1cc(C(=O)/C=C/c2ccc(OC)c3oc(-c4ccc(C)cc4)cc23)cc(OC)c1O` here?
Answer: Its viability at 40 µM is 82%.

Test system: PC-12
Test: Cytotoxicity against rat PC12 cells assessed as cell viability at 10 uM incubated for 24 hrs by CCK-8 assay relative to control
Assay type: functional
Conditions: read-out: Activity

Question: For `CC(C)(C)OO` [TERT-BUTYL HYDROPEROXIDE], which viability at 10 µM is on record?
Answer: Its viability at 10 µM is 52.1%.

Question: With `COc1ccc(-c2cc3c(/C=C/C(=O)c4cc(OC)c(OC)c(OC)c4)ccc(OC)c3o2)cc1` as the molecule, how does the viability at 10 µM read?
Answer: Its viability at 10 µM is 43.7%.

Question: Which viability at 10 µM does the source give for `COC(=O)[C@@H]1CCCN1C(=O)/C=C/c1ccc(OC)c2oc(-c3ccc(C)cc3)cc12` here?
Answer: The viability at 10 µM was 32.3%.

Question: With `COc1ccc(/C=C/C(=O)c2ccc(O)cc2)c2cc(-c3ccc(C)cc3)oc12` as the molecule, how does the viability at 10 µM read?
Answer: The viability at 10 µM was 55.9%.

Question: Which viability at 10 µM does the source give for `COC(=O)CNC(=O)/C=C/c1ccc(OC)c2oc(-c3ccc(C)cc3)cc12` here?
Answer: Its viability at 10 µM is 68.9%.

Question: For `COc1cc(OC)cc(-c2cc3c(/C=C/C(=O)NCCc4ccc(O)c(O)c4)ccc(OC)c3o2)c1`, which viability at 10 µM is on record?
Answer: The viability at 10 µM was 76.7%.

Question: With `CCCC[C@H](NC(=O)/C=C/c1ccc(OC)c2oc(-c3ccc(C)cc3)cc12)C(=O)OC` as the molecule, how does the viability at 10 µM read?
Answer: Its viability at 10 µM is 56%.

Question: For `COC(=O)[C@H](CC1CCCCC1)NC(=O)/C=C/c1ccc(OC)c2oc(-c3ccc(C)cc3)cc12`, which viability at 10 µM is on record?
Answer: Its viability at 10 µM is 82.1%.

Question: For `COc1cc(C(=O)/C=C/c2ccc(OC)c3oc(-c4ccc(OC)c(OC)c4)cc23)ccc1O`, which viability at 10 µM is on record?
Answer: Its viability at 10 µM is 12.9%.

Question: With `COc1cccc(C(=O)/C=C/c2ccc(OC)c3oc(-c4ccc(C)cc4)cc23)c1` as the molecule, how does the viability at 10 µM read?
Answer: Its viability at 10 µM is 55.7%.

Question: For `COc1ccc(C(=O)/C=C/c2ccc(OC)c3oc(-c4ccc(C)cc4)cc23)cc1O`, which viability at 10 µM is on record?
Answer: The viability at 10 µM was 14.9%.

Question: For `COC(=O)[C@@H](NC(=O)/C=C/c1ccc(OC)c2oc(-c3ccc(C)cc3)cc12)C(C)C`, which viability at 10 µM is on record?
Answer: The viability at 10 µM was 73.1%.

Question: For `COc1cccc(C(=O)/C=C/c2ccc(OC)c3oc(-c4ccc(C)cc4)cc23)c1OC`, which viability at 10 µM is on record?
Answer: The viability at 10 µM was 67.5%.

Question: With `COc1ccc(C(=O)/C=C/c2ccc(OC)c3oc(-c4ccc(C)cc4)cc23)cc1F` as the molecule, how does the viability at 10 µM read?
Answer: The viability at 10 µM was 50.8%.

Question: For `COc1ccc(/C=C/C(=O)c2cccc(O)c2)c2cc(-c3ccc(C)cc3)oc12`, which viability at 10 µM is on record?
Answer: Its viability at 10 µM is 37.7%.

Question: For `COC(=O)[C@H](Cc1c[nH]c2ccccc12)NC(=O)/C=C/c1ccc(OC)c2oc(-c3cc(OC)cc(OC)c3)cc12`, which viability at 10 µM is on record?
Answer: Its viability at 10 µM is 79.4%.

Question: Which viability at 10 µM does the source give for `COC(=O)[C@@H](NC(=O)/C=C/c1ccc(OC)c2oc(-c3ccc(C)cc3)cc12)c1ccc(O)cc1` here?
Answer: Its viability at 10 µM is 69.7%.

Question: With `COc1ccc(C(=O)/C=C/c2ccc(OC)c3oc(-c4ccc(C)cc4)cc23)cc1` as the molecule, how does the viability at 10 µM read?
Answer: Its viability at 10 µM is 56.8%.

Question: For `CC[C@H](NC(=O)/C=C/c1ccc(OC)c2oc(-c3ccc(C)cc3)cc12)C(=O)OC`, which viability at 10 µM is on record?
Answer: Its viability at 10 µM is 66.4%.

Question: Which viability at 10 µM does the source give for `COc1ccc(-c2cc3c(/C=C/C(=O)c4ccc(O)c(OC)c4)ccc(OC)c3o2)cc1` here?
Answer: Its viability at 10 µM is 77.2%.

Question: With `COc1ccc(C(=O)/C=C/c2ccc(OC)c3oc(-c4ccc(C)cc4)cc23)cc1OC` as the molecule, how does the viability at 10 µM read?
Answer: The viability at 10 µM was 42.9%.

Question: With `COc1cc(C(=O)/C=C/c2ccc(OC)c3oc(-c4ccc(C)cc4)cc23)cc(OC)c1O` as the molecule, how does the viability at 10 µM read?
Answer: The viability at 10 µM was 37.7%.

Test system: not listed separately
Test: Cytotoxicity against mouse RAW cells assessed as cell viability
Assay type: toxicity, cell-based
Design: concentration or dose not given beside the values
Conditions: read-out: Activity

Question: With `COc1ccc(-c2cc3c(/C=C/C(=O)c4cc(OC)c(OC)c(OC)c4)ccc(OC)c3o2)cc1` as the molecule, how does the viability read?
Answer: Its viability is less than 80%.

Question: For `COc1ccc(/C=C/C(=O)c2ccc(O)cc2)c2cc(-c3ccc(C)cc3)oc12`, which viability is on record?
Answer: Its viability is less than 80%.

Question: With `COc1cc(OC)cc(-c2cc3c(/C=C/C(=O)NCCc4ccc(O)c(O)c4)ccc(OC)c3o2)c1` as the molecule, how does the viability read?
Answer: Its viability is less than 80%.

Question: With `COc1cc(C(=O)/C=C/c2ccc(OC)c3oc(-c4ccc(OC)c(OC)c4)cc23)ccc1O` as the molecule, how does the viability read?
Answer: The viability was less than 80%.

Question: For `COc1ccc(/C=C/C(=O)c2cccc(O)c2)c2cc(-c3ccc(C)cc3)oc12`, which viability is on record?
Answer: Its viability is less than 80%.

From ChEMBL document CHEMBL6177962, “Design, synthesis and biological evaluation of 2-arylbenzo[b]furan-4-vinylcarbonyl derivatives based on Salvianolic acid C as antioxidant neuroprotective agents for the treatment of ischemic stroke” (Eur J Med Chem, 2025)
